Here are results for three molecules from US5051431A, “Pyridone nitriles useful in treating cardiovascular disease” (Glaxo Inc., priority 1990, dated 1991).

The subject of experiment [1] is rat aorta. Put plainly: Rat Aorta Protocol: relaxation of phenylephrine-contracted rat aorta rings (endothelium removed). It counts as cell-based. The protocol: Such vasorelaxation appears to be related to inhibition of the phosphodiesterase (PDE) isozyme related to the cardiac sarcoplasmic reticulum. Thus, relaxation of rat aorta can be used as a screen to eliminate compounds which are not PDE inhibitors prior to testing for actual inotropic activity.
Rings of rat aorta (endothelium removed) were prepared for the measurement of isometric force in isolated tissue organ chambers essentially as previously described by T. J. Rimele et al in the Journal of Pharmacol. Exo. Ther. 245:102-111 (1988). The experimental portion of the protocol began with the addition of methylene blue (1×10^-5 M) and propranolol (1×10^-6 M) to each organ chamber to inhibit basal cGMP accumulation due to soluble guanylate cyclase and beta-adrenoceptors.Phenylephrine (1×10^-7 M) was then added and the rings were allowed to obtain a stable contractile response after which time, the test compound was added in a cumulative fashion. The relaxation induced by each concentration of the test compound was expressed as a percentage of the maximal relaxation produced by nitroprusside (1×10^-4 M). The results were graphically represented as a plot of the percentage relaxation vs. the negative log of the molar concentration of the test compound. […]

Another experiment concerns guinea pig left atria. Put plainly: Guinea Pig Left Atria Test: direct effect on force of atrial contraction. It counts as cell-based. To be noted: Cavia porcellus, propranolol and phentolamine (1.0 micromolar each) present. The method, then: This test is carried out as generally described by T. P. Kenakin et al in Journal of Cardiovascular Pharmacology 101, 658-666 (1987) and in the Journal of Pharmacology and Experimental Therapeutics, Vol. 213, 406-413 (1980).
Male Hartley guinea-pigs (300-400 grams) were sacrificed by cervical dislocation or carbon dioxide asphyxiation. The hearts were immediately removed and placed in oxygenated Krebs-Henseleit buffer (composition (millimolar): Na^+ 143, K^+ 5.9, Ca^++ 1.25, Mg^++ 1.2, Cl^- 128, HCO3^- 25, SO4^-- 1.2, H2 PO4^- 1.0, and D-glucose 10). Left atria were dissected away from the remainder of the heart and mounted on holders against platinum punctate electrodes. The mounted atria were placed in tissue baths maintained at 31° C. and oxygenated with 95% 02 -5% CO2 under 1.0 gram resting tension. […] Contractions were detected with a force displacement transducer and recorded on a physiograph. […]
Direct effects of the test compounds on the force of atrial contraction were observed and recorded after addition of the compounds to the tissue bath. […] Responses to the test compounds and forskolin were expressed as a percentage of the maximal response to forskolin. EC50 values for the test compounds were calculated as the concentration of the compound necessary to produce an inotropic response half that of the maximal response produced by the test compound.

The next experiment concerns the target T1, Beta-1 adrenoceptor (Rattus norvegicus, UniProt P18090).
T1 construct: rat brain cortices were used as the source of membrane vesicles; from tissue; host or cells: rat brain cortex membranes
The experiment in a line: Beta Adrenoceptor Binding Assays: displacement of [I-125]-Pindolol from rat brain cortical membranes. To be noted: pH 7.6, 22° C., two hr, read-out: pIC50 (negative log of the IC50) (converted). The method, then: Because of its receptor density rat brain cortices were used as the source of membrane vesicles to be used in the receptor binding assays. Freshly excised cortexes were homogenized in 20 volumes (w/v) 50 mM TRIS HCl Buffer (pH 7.5), with a glass/Teflon homogenizer following the procedure previously described by T. J. Rimele in J. Pharmacol Exp. Ther. 239: 1-8, 1986. Beta-1 adrenoceptor binding activity was determined following methods described by M. H. Randall, et al, J. Med. Chem. 20: 1090-1094, 1977, and J. Homberger, et al in Mol. Pharmacol. 20: 453-469, 1981. The incubation mixture consisted of; 26 μl of 50 mM TRIS/HCl, 10 mM MgCl2 pH 7.6 buffer, 25 μl of test drug or 10-6 pindolol to define nonspecific binding, 100 μl of [I-125]-Pindolol (2200Ci/mM) at a final concentration of 10-9, and 100 μl of brain cortical membranes. The mixture was incubated at RT (22 ° C.) for two hr in the dark. The reaction was stopped by filtration of the mixture through buffer soaked glass fiber membranes (GF/B) using an cell harvesting device (Skatron Inc.). The radioactivity in each filter containing the trapped membrane particles was counted with a gamma counter. […] All specific binding values obtained in the presence of test compounds were expressed as the percentage of specific binding displaced by the individual agents. […]

Experiment [2] concerns barbiturate-anesthetized dogs. The experiment in a line: Anesthetized Dog: inotropic effect (increase in baseline left ventricular dP/dt). The format is in vivo. The protocol: (§1) Inotropic effects were evaluated in barbiturate-anesthetized dogs by differentiating left intraventricular pressure. This procedure was carried out essentially as described by M. K. Grizzel et al in the FASEB Journal, Vol. 3, page 1039, abstract 4728 (1989). Purpose breed mongrel dogs (14-20 kg) of either sex were anesthetized with a mixture of sodium pentobarbital (15 mg/kg) and sodium barbital (300 mg/kg) i.v., intubated with a cuffed endotracheal tube and ventilated with a respirator (Harvard Apparatus, model 613, South Natick, Mass.) with room air (22 rpm, 10-12 ml/kg/stroke). […] Cardiac output was determined via thermodilution with a Spectramed computer (Starcom., Oxnard, Calif.) and a 5F Swan Ganz catheter which was inserted into the right jugular vein and positioned in the pulmonary artery. […] A lead II electrocardiogram was measured using subcutaneous electrodes. […] Rectal temperature was monitored and maintained at 37°-38° C. with a heating pad (Baxter Health Care model K20, McGaw Park, Ill.). All variables were recorded using a Gould 3800S physiograph.
(§2) Isoproterenol (0.1-0.5 μg/kg) was injected i.v. into the cephalic vein at 10 min intervals except for when the test drug infusion was begun. […] Inhibition of the isoproterenol responses on contractility (dP/dt), heart rate and diastolic blood pressure were determined at each dose of test compound. […]

In experiment [3] the test system is barbiturate-anesthetized dogs. The experiment in a line: Anesthetized Dog: beta-blocking effect (inhibition of the dP/dt response to isoproterenol). It counts as in vivo. The settings on record: Canis lupus familiaris, iv, infusion, isoproterenol 0.1-0.5 μg/kg i.v. The method, then:
as §1, §2

In experiment [4] the test system is rat aorta. The settings on record: literature, R. F. Kauffman et al., J. Pharmacol. Exp. Ther. 242:864-872 (1987); cited from earlier work.

Molecules are shown by their SMILES.

T1 sequence (P18090 whole entry): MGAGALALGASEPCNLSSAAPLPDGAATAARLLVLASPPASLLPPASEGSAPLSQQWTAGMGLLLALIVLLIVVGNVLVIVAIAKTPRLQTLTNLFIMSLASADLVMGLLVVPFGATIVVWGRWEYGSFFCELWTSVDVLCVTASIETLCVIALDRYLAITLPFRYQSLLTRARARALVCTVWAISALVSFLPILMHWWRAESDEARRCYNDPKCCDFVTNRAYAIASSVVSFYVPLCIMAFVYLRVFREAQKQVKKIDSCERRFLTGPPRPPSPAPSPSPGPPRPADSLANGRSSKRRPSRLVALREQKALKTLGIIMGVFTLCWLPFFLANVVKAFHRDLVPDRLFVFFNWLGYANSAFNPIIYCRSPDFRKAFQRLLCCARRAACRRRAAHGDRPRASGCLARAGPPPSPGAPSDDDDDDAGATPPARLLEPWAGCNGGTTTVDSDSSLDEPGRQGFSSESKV

Take `Cc1[nH]c(=O)c(C#N)cc1-c1ccc(OCCCC(=O)NCCNCC(O)COc2ccccc2)cc1` (stereo not shown) [Example 2, 5-{4-[N-[2-(3-Phenoxy-2-hydroxypropylamino)ethyl]carbamoylpropyloxy]phenyl}-6-methyl-2-oxo-1,2-dihydro-3-pyridinecarbonitrile]: the Emax at 100 µM with rat aorta [1] (Rattus norvegicus, at the highest dose tested (100 micromolar), read-out: maximal response (relaxation as percentage of the maximal relaxation produced by nitroprusside)) amounted to 97%; with guinea pig left atria (at 100 micromolar, read-out: maximal response (percentage of the maximal response to forskolin)), 36%. Also, the IC50 with rat aorta [1] (rat aorta rings, endothelium removed, phenylephrine 1×10^-7 M, methylene blue and propranolol present, read-out: IC50 (concentration of test compound which produced a relaxation equivalent to 50% of the maximal relaxation induced by nitroprusside)) is 23 µM; at Beta-1 adrenoceptor, 0.02 µM. Further, the EC50 with guinea pig left atria (guinea pig left atria, 31° C., read-out: ED50 (concentration producing an inotropic response half that of the maximal response produced by the test compound)) amounted to 13 µM. Also, the ED50 in experiment [2] (Canis lupus familiaris, iv, infusion, compared to baseline prior to drug infusion, read-out: inotropic ED50 (50% increase in dP/dt)) came to 0.04 µmol/kg; in experiment [3], 0.055 µmol/kg. Moreover, the “inotropic effects at higher doses, sensitivity to atenolol” value in experiment [2] (higher doses, atenolol) is on record as “not blocked by atenolol”.
Regarding `CSc1ccc(C(=O)c2[nH]c(=O)[nH]c2C)cc1` [enoximone], the “relaxation of rat aorta” value with rat aorta [4] is recorded as “marked relaxation”.
`Cc1[nH]c(=O)c(C#N)cc1-c1ccncc1` [milrinone]: the “relaxation of rat aorta” value in the experiment with rat aorta [4] is listed as “marked relaxation”.
